The source made the active and inactive calls. The rule behind the calls is not given here.
What was measured:
[1] = biological target: T1, Porphobilinogen deaminase (Homo sapiens) (UniProt P08397); settings: at 100 µM
T1 sequence (whole entry): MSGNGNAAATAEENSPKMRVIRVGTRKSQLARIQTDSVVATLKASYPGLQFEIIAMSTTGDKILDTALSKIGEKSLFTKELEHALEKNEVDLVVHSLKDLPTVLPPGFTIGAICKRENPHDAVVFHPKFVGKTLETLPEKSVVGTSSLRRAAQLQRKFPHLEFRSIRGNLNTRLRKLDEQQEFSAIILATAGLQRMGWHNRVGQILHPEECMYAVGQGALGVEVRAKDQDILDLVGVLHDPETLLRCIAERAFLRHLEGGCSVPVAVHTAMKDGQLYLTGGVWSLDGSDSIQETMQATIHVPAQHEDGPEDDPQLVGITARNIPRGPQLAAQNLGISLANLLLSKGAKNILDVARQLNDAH
Description: Compound was evaluated for the inhibition of human HMBS at 100uM

[2] = biological target: T2, Ferrochelatase, mitochondrial (Homo sapiens) (UniProt P22830); settings: at 10 µM
T2 sequence (whole entry): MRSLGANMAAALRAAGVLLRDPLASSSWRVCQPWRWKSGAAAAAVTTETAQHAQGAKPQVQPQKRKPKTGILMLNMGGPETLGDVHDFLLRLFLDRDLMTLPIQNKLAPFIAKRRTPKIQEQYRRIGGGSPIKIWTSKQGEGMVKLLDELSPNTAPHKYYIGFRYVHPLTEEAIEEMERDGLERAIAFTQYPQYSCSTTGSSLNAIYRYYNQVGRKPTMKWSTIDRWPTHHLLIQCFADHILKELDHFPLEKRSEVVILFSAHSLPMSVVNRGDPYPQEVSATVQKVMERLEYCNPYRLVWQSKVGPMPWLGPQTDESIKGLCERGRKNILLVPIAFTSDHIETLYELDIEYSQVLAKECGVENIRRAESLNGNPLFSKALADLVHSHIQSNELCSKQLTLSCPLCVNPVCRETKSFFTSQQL
Description: Compound was evaluated for the inhibition of human FECH at 10uM

Structure (SMILES)	inhibition [1]	inhibition [2]
c1ccc(-c2cc(N3CCCCC3)c3ccccc3n2)nc1	inactive	inactive
CCOC(=O)c1cc(-c2csc(Nc3c(C)cc(C)cc3C)n2)on1	inactive	inactive
CC(C)n1ncc2c(C(=O)NCC(c3cccs3)N3CCOCC3)cc(-c3ccccc3)nc21 (centres undefined)	inactive	inactive
Cc1ccccc1C(=O)N1N=C(Nc2ccccc2)SC1(C)C	inactive	inactive
CC1CC1C(=O)NC1CCN(CC2(c3ccccc3)CCCCC2)CC1 (centres undefined)	inactive	inactive
CC1=Nc2ccc(Cl)cc2C(c2ccccc2)N1CCNC(=O)CN(C)C (centres undefined)	inactive	inactive
CC(=O)NCC1CN(c2ccc(-c3ccc(CO)cc3)c(F)c2)C(=O)O1 (centres undefined)	inactive	inactive
CC(C)(C)C(=O)N(CCCCCCN1C[C@H](O)[C@@H](O)[C@H](O)[C@H]1CO)C1CCCCCC1	inactive	inactive
CC[C@@H]([C@H](C)O)n1ncn(-c2ccc(N3CCN(c4ccc(OC[C@@H]5CO[C@@](Cn6cncn6)(c6ccc(F)cc6F)C5)cc4)CC3)cc2)c1=O	inactive	inactive
Cc1cc(C(=O)Nc2cnn(Cc3ccc(Cl)cc3Cl)c2)no1	inactive	inactive
c1ccc(-c2nc(NC3CCCCC3)cc(C3CC3)n2)nc1	inactive	inactive
N=C(N)c1ccc(-c2cc(-c3ccccc3)on2)cc1	inactive	inactive
COc1ccc(Cn2cnc3c(-c4ccco4)nc(Cl)nc32)cc1	inactive	inactive
CCc1ccc(C(NCc2nc(N)nc(N(C)C)n2)C(C)C)cc1 (centres undefined)	inactive	inactive
CC(C)C(Oc1cccc2ccccc12)C(=O)O (centres undefined)	inactive	inactive
CNC(=O)c1cc(S(=O)(=O)N2CCN(c3ccccn3)CC2)cs1	inactive	inactive
CC(C)C(NC(=O)Cc1cccc2ccccc12)C(=O)Nc1cccc(C#N)c1 (centres undefined)	inactive	inactive
Cc1ccc(Oc2ccc(NC(=O)CNc3ccccc3N3CCCC3=O)cc2)cc1	inactive	inactive
O=C(NCc1ccco1)N1CCN(Cc2ccc(Cl)s2)CC1	inactive	inactive
COc1cc(C2=NCCN2)cc2cc(-c3ccc(C4=NCCN4)cc3)oc12	inactive	inactive
Cc1cc2ccccc2n1CC(=O)N1CC(C(=O)N2CCCCC2)Oc2ccccc21 (centres undefined)	inactive	inactive
Cc1[nH]c2ccccc2c1C(c1cccs1)N1CCN(C)CC1 (centres undefined)	inactive	inactive
CC(C)(C)OC(=O)N1CCN(c2cc(-c3ccc(Oc4ccccc4)cc3)n[nH]2)CC1	inactive	inactive
O=C(NC1CC1)c1ccc(CSCc2ccccc2Cl)o1	inactive	inactive
Cc1cc(Nc2ccncc2)n2nc(C)c(-c3ccccc3Cl)c2n1	inactive	inactive
CN1CCN(S(=O)(=O)c2ccc(-c3ccc4c(Nc5ncc(Cl)cn5)ccnc4c3)cc2)CC1	inactive	inactive

Structure (SMILES)	inhibition [1]	inhibition [2]
COc1ccccc1CNC(=O)c1cc(C2CC2)nc2c1cnn2C(C)C	inactive	inactive
N#Cc1nc(-c2ccccc2F)oc1NCCc1ccccc1	inactive	inactive
CN1CCN(c2nccc3[nH]c(-c4cccc(F)c4)cc23)CC1	inactive	inactive
CCOc1ccccc1NC(C)C(=O)Nc1cc(C(F)(F)F)ccc1N1CCOCC1 (centres undefined)	inactive	inactive
CO[C@@H]1CN(c2ccc(C#CC3(O)CN4CCC3CC4)c(Cc3ccccc3)n2)C[C@H]1O (some centres undefined)	inactive	inactive
CC(C)(C)C(O)C(Oc1ccc(-c2ccccc2)cc1)n1cncn1 (centres undefined)	inactive	inactive
c1ccc(Oc2ccc(-c3cc(N4CCOCC4)[nH]n3)cc2)cc1	inactive	inactive
COC(=O)c1c(NC(=O)c2c(F)c(F)c(F)c(F)c2F)sc2c1CCCCC2	inactive	inactive
O=C(NCCc1ccn(-c2ccccc2)n1)C1CCCCC1	inactive	inactive
c1ccc(Oc2ccc(-c3cc(C4CCOCC4)[nH]n3)cc2)cc1	inactive	inactive
CCn1cnc2c(Nc3cc(F)cc(F)c3)nc(C#N)nc21	inactive	inactive
COc1ccc(-c2onc(C(F)(F)F)c2-c2ccc(Cl)cc2)c(O)c1	inactive	inactive
COc1ccc(-c2nnc3ccc(-c4cccc(C(C)C)c4)cn23)cc1OC	inactive	inactive
COc1cccc(CC(=O)N2CCC(n3c(C)nc4ccc(F)cc43)CC2)c1	inactive	inactive
Cc1cc(NC(=O)c2ccc(S(=O)(=O)N(Cc3ccccc3)C(C)C)cc2)no1	inactive	inactive
Cc1ccc(C(=O)Nc2ccc(S(=O)(=O)O)c3cc(S(=O)(=O)O)cc(S(=O)(=O)O)c23)cc1NC(=O)c1cccc(NC(=O)Nc2cccc(C(=O)Nc3cc(C(=O)Nc4ccc(S(=O)(=O)O)c5cc(S(=O)(=O)O)cc(S(=O)(=O)O)c45)ccc3C)c2)c1	inactive	inactive
CCC(C)NC(=O)c1ccc(NC(=O)C2(c3ccccc3)CCCC2)cc1 (centres undefined)	inactive	inactive
COc1cccc(OCC(=O)c2ccc(Br)cc2)c1	inactive	inactive
N#Cc1ccc(-c2ccc(OCC(N)=O)cc2)cc1	inactive	inactive
COc1ccccc1C(C)NCC(=O)Nc1cc(C(F)(F)F)ccc1Cl (centres undefined)	inactive	inactive
C[C@]1(COc2ccc(N3CCC(Oc4ccc(OC(F)(F)F)cc4)CC3)cc2)Cn2cc([N+](=O)[O-])nc2O1	inactive	inactive
Cc1noc(C)c1C(=O)N1CCCC(c2[nH]c3c(C)cccc3c2-c2ccncc2)C1 (centres undefined)	inactive	inactive
CNCCC(Oc1ccc(C(F)(F)F)cc1)c1ccccc1 (centres undefined)	inactive	inactive
NCCC(O)C(=O)N[C@@H]1C[C@H](N)[C@@H](OC2O[C@H](CN)[C@@H](O)[C@H](O)[C@H]2O)[C@H](O)C1OC1O[C@H](CO)[C@@H](O)[C@H](N)[C@H]1O (some centres undefined)	inactive	inactive
N#Cc1ccc(-c2cnc(N)c(-c3ccc(C(N)=O)cc3)n2)cc1	inactive	inactive
O=C(Nc1ccnc(-c2cccnc2)n1)c1cc(C(F)(F)F)cc(C(F)(F)F)c1	inactive	inactive

Source: ChEMBL document CHEMBL3987221, “The Australian National University Dept Of Immunology Pathogen Box Compounds Screened” (2018)
